How the values were obtained:
Format in all cases: cell-based
[1] = molecular target: T1, GluN2A NMDARs in GluN2B-lacking neurons (Mus musculus, UniProt P35436+P35438); test: Whole-cell recordings in GluN2B-knockout cortical neurons; settings: compared to NMDA control
T1 construct: endogenous in cells; host or cells: primary cortical neurons from GluN2B-knockout mouse embryos

GluN1/GluN2A^A108G = molecular target: T2, GluN1/GluN2A^A108G (Rattus norvegicus, UniProt P35439+Q00959, A108G); test: Patch clamp in HEK293 cells expressing mutant GluN1/GluN2A A108G
T2 construct: expressed in transfected cells; host or cells: HEK293
Procedure: (§1) Whole cell patch-clamp recordings were performed under voltage-clamp mode using an Axopatch 200B or 1D patch-clamp amplifier (Molecular Devices). Whole-cell currents were recorded at a holding potential of −60 mV unless indicated elsewhere, and signals were filtered at 2 kHz, digitized at 10 kHz (Digidata 1322A). Recording pipettes (3-5 MΩ) were filled with intracellular solution containing (mM): CsCl 140, HEPES 10, Mg-ATP 4, QX-314 5, pH 7.20; osmolarity, 290-295 mOsm. BAPTA (10 mM) was added in the intracellular solution (unless otherwise specified). The coverslips were continuously superfused with extracellular solution containing (mM): NaCl 140, KCl 5.4, HEPES 10, CaCl2 1.3, glucose 20, pH 7.4; osmolarity, 305-315 mOsm. NMDA-induced currents were applied by NMDA through perfusion fast-step (Warner Instruments). With perfusion fast-step system, NMDA application was achieved by using a two-square barrel glass tubing and depending on the age of the cultured neurons, CNQX (10 μM), TTX (0.5 μM) or BIC (10 μM) were added in the extracellular solution to minimize the activation of ionotropic glutamate receptors and voltage-gated sodium channels, respectively. All experiments were performed at room temperature. Recordings from at least six HEK293 cells/neurons were performed for all active compounds. […]

GluN1^L135Q/GluN2A = molecular target: T3, GluN1^L135Q/GluN2A (Rattus norvegicus, UniProt P35439+Q00959, L135Q); test: Patch clamp in HEK293 cells expressing mutant GluN1 L135Q/GluN2A
T3 construct: expressed in transfected cells; host or cells: HEK293
T3 sequence (Q00959 23-1464, other chains not shown): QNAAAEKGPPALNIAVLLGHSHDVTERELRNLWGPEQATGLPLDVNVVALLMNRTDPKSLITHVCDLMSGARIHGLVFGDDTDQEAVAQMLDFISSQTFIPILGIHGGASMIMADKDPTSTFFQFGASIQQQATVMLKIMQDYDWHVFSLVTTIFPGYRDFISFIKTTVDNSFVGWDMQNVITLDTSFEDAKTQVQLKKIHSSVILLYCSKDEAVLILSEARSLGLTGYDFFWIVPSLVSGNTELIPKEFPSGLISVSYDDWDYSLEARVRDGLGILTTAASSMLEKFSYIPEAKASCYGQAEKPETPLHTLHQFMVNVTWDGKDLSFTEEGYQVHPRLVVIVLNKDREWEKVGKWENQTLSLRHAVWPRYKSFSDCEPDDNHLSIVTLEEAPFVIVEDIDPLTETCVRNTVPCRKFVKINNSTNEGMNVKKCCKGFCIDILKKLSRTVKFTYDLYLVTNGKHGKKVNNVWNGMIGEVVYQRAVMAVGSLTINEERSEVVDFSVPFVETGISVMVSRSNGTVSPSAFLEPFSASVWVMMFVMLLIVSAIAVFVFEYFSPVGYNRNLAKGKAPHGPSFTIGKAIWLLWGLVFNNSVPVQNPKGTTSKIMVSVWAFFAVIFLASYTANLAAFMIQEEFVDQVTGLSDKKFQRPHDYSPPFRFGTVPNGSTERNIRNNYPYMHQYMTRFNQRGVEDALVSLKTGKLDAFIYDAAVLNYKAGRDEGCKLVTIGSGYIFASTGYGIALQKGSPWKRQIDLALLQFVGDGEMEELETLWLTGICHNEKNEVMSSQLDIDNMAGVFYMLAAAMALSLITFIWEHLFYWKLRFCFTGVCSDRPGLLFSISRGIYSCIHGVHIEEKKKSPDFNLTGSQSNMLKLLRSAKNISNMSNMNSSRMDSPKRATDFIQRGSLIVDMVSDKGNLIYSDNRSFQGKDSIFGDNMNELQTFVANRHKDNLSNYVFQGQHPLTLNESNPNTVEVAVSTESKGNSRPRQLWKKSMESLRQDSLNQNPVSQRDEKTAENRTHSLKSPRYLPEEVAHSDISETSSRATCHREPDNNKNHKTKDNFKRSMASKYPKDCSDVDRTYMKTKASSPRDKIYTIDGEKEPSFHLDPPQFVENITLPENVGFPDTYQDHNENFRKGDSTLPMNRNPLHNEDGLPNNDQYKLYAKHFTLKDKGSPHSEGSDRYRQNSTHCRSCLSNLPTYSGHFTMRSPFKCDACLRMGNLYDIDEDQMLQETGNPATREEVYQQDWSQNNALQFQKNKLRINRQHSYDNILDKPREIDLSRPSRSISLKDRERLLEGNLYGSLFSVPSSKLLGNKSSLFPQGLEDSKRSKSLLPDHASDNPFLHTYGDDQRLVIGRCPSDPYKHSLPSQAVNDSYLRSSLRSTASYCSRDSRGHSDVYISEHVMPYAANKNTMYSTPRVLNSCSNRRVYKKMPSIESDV
Procedure: as §1

[2] = molecular target: T4, GluN1/GluN2A-containing NMDARs (Rattus norvegicus, UniProt P35439+Q00959); test: Ca2+ influx assay (Fluo-4) in primary cultured rat neurons
T4 construct: endogenous in cells; host or cells: primary rat cortical neurons, 12-14 days in culture
Procedure: Rat neurons isolated from the entire cortex were plated onto poly-d-lysine-coated 96-well plates. After 12-14 days in culture, the level of intracellular calcium was assayed using the Fluo-4 No Wash calcium assay kit according to the manufacturer's protocol (Thermo Fisher Scientific). In brief, the neuronal culture medium was removed and replaced with a calcium assay buffer (CAB) containing […], 20 mM HEPES, 2.5 mM probenacid, and Fluo4-NW dye mix (pH 7.4; Thermo Fisher Scientific). The cells were then incubated for 45 minutes at 37° C. for dye loading and then 15 minutes at 25° C. To isolate calcium signals mediated by NMDARs, NMDA was used as an agonist (10 μM), and 2 μM glycine were added. The antagonist […] was used to block the GluN1/GluN2A NMDARs. The calcium fluorescence measurement was performed at 25° C. after 60 seconds of recording with a FLEXStation II benchtop scanning fluorometer (Molecular Devices); then, the NMDAR agonist NMDA (10 μM)/glycine (2 μM) was added at 180 seconds. Fluorescence plate reading continued for a total of 30 mins with use of an excitation of 485 nm, an emission of 538 nm, and a cutoff of […]. The data were recorded using SoftMax Pro software (Molecular Devices). […]

GluN1^L135Q/GluN2A^F115S = molecular target: T5, GluN1^L135Q/GluN2A^F115S (Rattus norvegicus, UniProt P35439+Q00959, F115S/L135Q); test: Patch clamp in HEK293 cells expressing double mutant GluN1 L135Q/GluN2A F115S
T5 construct: expressed in transfected cells; host or cells: HEK293
T5 sequence (Q00959 23-1464 F115S, other chains not shown): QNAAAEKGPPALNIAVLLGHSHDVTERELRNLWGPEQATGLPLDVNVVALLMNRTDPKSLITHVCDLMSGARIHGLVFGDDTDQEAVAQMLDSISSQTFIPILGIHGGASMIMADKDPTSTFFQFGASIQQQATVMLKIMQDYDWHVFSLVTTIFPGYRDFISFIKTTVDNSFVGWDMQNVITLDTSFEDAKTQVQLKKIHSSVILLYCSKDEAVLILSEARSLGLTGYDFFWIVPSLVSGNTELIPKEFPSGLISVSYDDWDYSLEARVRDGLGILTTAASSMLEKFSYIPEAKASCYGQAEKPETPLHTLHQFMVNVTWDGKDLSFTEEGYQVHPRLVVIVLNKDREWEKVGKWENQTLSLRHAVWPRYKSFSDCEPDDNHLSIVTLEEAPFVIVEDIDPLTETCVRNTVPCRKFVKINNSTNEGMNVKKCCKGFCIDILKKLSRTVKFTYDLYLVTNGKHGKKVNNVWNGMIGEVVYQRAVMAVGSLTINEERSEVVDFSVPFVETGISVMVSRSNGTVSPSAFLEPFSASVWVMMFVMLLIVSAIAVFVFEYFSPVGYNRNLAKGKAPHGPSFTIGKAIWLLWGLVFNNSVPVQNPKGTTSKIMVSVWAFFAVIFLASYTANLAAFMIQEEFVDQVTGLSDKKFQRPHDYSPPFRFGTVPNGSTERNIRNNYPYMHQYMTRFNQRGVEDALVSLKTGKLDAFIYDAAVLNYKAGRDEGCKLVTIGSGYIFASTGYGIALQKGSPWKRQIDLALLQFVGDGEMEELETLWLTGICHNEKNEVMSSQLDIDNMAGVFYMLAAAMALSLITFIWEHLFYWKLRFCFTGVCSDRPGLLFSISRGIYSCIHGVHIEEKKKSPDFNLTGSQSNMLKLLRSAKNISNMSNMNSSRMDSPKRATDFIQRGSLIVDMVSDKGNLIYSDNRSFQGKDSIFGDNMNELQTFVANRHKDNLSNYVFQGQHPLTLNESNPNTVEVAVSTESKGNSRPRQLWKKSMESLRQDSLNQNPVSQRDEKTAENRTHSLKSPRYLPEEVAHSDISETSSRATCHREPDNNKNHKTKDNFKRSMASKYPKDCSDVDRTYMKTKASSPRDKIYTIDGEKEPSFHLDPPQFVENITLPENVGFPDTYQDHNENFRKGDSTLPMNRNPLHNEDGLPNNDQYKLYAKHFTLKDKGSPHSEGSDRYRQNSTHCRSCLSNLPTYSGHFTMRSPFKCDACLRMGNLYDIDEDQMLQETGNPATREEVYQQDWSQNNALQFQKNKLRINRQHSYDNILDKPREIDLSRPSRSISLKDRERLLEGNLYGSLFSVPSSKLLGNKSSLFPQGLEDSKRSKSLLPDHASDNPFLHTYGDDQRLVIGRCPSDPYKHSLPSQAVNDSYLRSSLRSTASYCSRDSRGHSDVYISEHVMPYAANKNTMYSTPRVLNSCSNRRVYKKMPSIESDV
Procedure: as §1

T1 sequence (P35436 23-1464, other chains not shown): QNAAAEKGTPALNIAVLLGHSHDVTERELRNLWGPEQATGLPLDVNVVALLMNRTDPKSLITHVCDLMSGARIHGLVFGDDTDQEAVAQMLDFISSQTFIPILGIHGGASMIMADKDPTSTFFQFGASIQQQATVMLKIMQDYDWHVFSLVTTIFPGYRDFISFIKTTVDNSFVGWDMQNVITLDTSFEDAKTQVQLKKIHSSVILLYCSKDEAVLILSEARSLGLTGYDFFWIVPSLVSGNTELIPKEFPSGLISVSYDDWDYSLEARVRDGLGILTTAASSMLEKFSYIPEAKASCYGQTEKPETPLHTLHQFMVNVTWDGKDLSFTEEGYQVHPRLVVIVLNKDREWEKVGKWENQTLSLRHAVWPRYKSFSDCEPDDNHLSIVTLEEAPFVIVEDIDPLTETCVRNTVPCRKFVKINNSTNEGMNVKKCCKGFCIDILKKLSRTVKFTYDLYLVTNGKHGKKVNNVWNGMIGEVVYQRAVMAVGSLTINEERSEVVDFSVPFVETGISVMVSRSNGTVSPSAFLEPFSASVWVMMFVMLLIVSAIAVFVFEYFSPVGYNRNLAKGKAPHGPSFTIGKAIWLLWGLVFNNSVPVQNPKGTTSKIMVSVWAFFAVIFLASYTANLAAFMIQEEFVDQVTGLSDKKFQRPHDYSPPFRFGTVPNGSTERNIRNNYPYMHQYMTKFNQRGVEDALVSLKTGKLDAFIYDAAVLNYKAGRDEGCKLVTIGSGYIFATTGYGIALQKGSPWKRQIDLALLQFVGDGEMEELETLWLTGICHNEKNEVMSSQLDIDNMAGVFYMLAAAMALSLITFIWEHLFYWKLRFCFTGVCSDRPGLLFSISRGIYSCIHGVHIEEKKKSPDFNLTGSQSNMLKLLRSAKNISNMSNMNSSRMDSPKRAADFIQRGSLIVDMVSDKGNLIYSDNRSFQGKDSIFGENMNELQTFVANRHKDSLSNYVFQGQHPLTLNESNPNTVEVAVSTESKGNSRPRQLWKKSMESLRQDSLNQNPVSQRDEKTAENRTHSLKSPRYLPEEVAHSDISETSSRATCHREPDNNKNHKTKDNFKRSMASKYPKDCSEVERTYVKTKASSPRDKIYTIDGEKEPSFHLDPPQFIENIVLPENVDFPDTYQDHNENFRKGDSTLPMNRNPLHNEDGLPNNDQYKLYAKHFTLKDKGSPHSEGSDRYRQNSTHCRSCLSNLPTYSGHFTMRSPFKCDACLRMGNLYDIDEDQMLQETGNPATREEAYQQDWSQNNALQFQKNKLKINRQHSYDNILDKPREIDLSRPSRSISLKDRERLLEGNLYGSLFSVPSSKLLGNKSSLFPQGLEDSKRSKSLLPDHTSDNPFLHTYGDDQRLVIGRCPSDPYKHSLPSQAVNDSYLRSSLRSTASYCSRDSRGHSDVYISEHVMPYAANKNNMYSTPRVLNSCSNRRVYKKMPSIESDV

COc1cccc(/C=N/NC(=O)c2ccccc2C)c1O [Npam02, (E)-N′-(2-hydroxy-3-methoxybenzylidene)-2-methylbenzohydrazide]
Positive modulation of NMDAR currents ([1]; 100 μM bath, NMDA 20 μM, glycine 2 μM): 44.72±4.29% | Potentiation effect with co-applied ifenprodril (IF) ([1]; GluN2B-knockout neurons): 42.22±4.03% | NMDAR current change with NVP-AAM007 (0.2 μM) and Npam02 ([1]; Npam02 100 μM): 88.87±3.45%

CCOc1cc(Cl)c(Cl)c(/C=N/NC(=O)c2ccccc2Br)c1O [Npam43, (E)-2-bromo-N′-(2,3-dichloro-5-ethoxy-6-hydroxybenzylidene)benzohydrazide]
Relative potentiation (GluN1/GluN2A^A108G; Table 3): 210 ± 9.0% | Net Difference potentiation (GluN1/GluN2A^A108G; normalized to wild-type): +0.48 ± 0.01% | Relative potentiation (GluN1^L135Q/GluN2A; Table 3): 47.1 ± 2.8% | Net Difference potentiation (GluN1^L135Q/GluN2A; normalized to wild-type): −77.5±2.12% | Ca2+ influx in response to Npam43 with co-applied NVP-AAM0077 ([2]; GluN2A antagonist co-applied): marked reduction of Ca^2+ influx | Ca2+ influx fluorescence signal ([2]; NMDA 10 μM, glycine 2 μM): increased the Ca^2+ influx fluorescence signal | Net Difference potentiation (GluN1^L135Q/GluN2A^F115S; GluN1 L135Q/GluN2A F115S double mutation, normalized to wild-type): −93.9±10.3% | Relative potentiation (GluN1^L135Q/GluN2A^F115S; Table 3, GluN1 L135Q/GluN2A F115S): 12.7 ± 1.8%

From patent US11166924B2, “N-methyl-d-aspartate receptor allosteric modulators and methods for their use” (Qingdao Primedicine Pharmaceutical Company, Ltd., priority 2016, dated 2021)
